Tested on: T-cells
Experiment: In vivo activity: CD25 expression on CD4+ or CD8+ T-cells of mice stimulated with anti-CD3 antibody
Settings: 2 μg anti-CD3 antibody, 24 hours
In short: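 C57BL/6 or BALB/c mice dosed with inhibitor (IV, IP, SC or PO, e.g. BID or TID), then stimulated with 2 μg anti-CD3 antibody. Plasma IL-2, IFNγ, TNFα at 8 h and CD25 on CD4+/CD8+ T-cells by flow cytometry at 24 h; fold change over vehicle plus anti-CD3, binned A–E.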

Row | Compound | CD4+ T-cell % CD25+ (90 mpk PO BID) | CD8+ T-cell % CD25+ (90 mpk PO BID) | CD4+ T-cell % CD25+ (135 mpk PO BID) | CD8+ T-cell % CD25+ (135 mpk PO BID) | CD4+ T-cell % CD25+ (180 mpk PO BID) | CD8+ T-cell % CD25+ (180 mpk PO BID) | CD4+ T-cell % CD25+ (90 mpk IP BID) | CD8+ T-cell % CD25+ (90 mpk IP BID)
1 | Cn1cnnc1[C@@H]1C[C@@H]1c1cccc(N2Cc3c(cccc3C(F)(F)F)C2=O)c1 [Compound 282, 2-(3-((1S,2R)-2-(4-methyl-4H-1,2,4-triazol-3-yl)cyclopropyl)phenyl)-4-(trifluoromethyl)isoindolin-1-one] | D (D indicates 1.00-1.50) | D (D indicates 1.00-1.50) | C (C indicates 1.51-2.00) | D (D indicates 1.00-1.50) | B (B indicates 2.01-2.50) | D (D indicates 1.00-1.50) | – | –
2 | C[C@H](Cc1nncn1C)c1cccc(NC(=O)c2ccnc(C(F)(F)F)n2)c1 [Compound 187, (R)-N-(3-(1-(4-methyl-4H-1,2,4-triazol-3-yl)propan-2-yl)phenyl)-2-(trifluoromethyl)pyrimidine-4-carboxamide] | – | – | – | – | – | – | C (C indicates 1.51-2.00) | D (D indicates 1.00-1.50)

Reference: US20220324835A1 (Nurix Therapeutics, Inc., priority 2018, published 2022)
